Experimental data as given in US20070179084A1, “Process for reducing the concentration of blood glucose in a diabetic patient” (Nation Chiao Tung University, priority 2006, published 2007).

Key:
C2C12 cells [1] = assay: Glucose absorption (2-deoxy-D-glucose uptake) by differentiated C2C12 myotubes, Amplex Red Glucose/Glucose Oxidase Assay Kit; format: cell-based, mouse; conditions: for glucose absorption in contrast to C2C12 cells without stimulation (in words): 0.1 μM, 1 μM, 10 μM and 100 μM metal solution
Protocol: The cells are cultured and differentiate. […] Then, a half of the culture media are removed and replaced with fresh differentiation media (90% DMEM (Dulbecco's Modified Eagle's Medium) and 10% FBS (fetal bovine serum)). […] In normal physiological conditions, the myotube differentiates from the myoblast and aggregates to form muscle. Therefore, the myotube has a cell type most similar to muscle, so that the cell type of used cells is a myotube in the whole test experiment. The glucose extracted from the cells is determined. […] When starting the experiment, add the stimulating samples with suitable concentration to the culture media and incubate at 37° C. for 30 minutes (mins). […] Finally, incubate the cells on ice for 10 mins, to stop the reaction. Then, remove the culture media, and wash the cells three times with an ice-cold PBS solution. After washing, scrape the cells from the plate with ice-cold 65% EtOH and sonicate the cells. After spun in a centrifuge at 13000 rpm and 4° C. for 15 mins, transfer the supernatant to fresh the eppendorf tube and then spin the remainder in the centrifuge again to collect the supernatant again. The collected supernatants are mixed and dry the supernatant by vacuum centrifugation. After drying, the sample is acquired and assayed for […] levels using the Amplex Red Glucose/Glucose Oxidase Assay Kit.

C2C12 cells [2] = assay: Observation of change in cell type, floating and damage of C2C12 cells after stimulation
Text: In FIG. 4, the columns with the same patterns represent the C2C12 cells stimulated by the same metal ion (or oxidized metal ion) solutions and the sign under the transverse axle indicates the concentration of the metal ion (or oxidized metal ion) solution, corresponding to each column.
In FIG. 8, the columns with the same patterns represent treatment with the same complex and the sign under the transverse axle indicates the concentration of the complex corresponding to each column.

[3] = 40 μg/ml complex, co-treated with 10 μM insulin, vs no stimulating sample
[4] = 40 mg/ml complex solution including 1 mM metal ion and the insulin
[5] = 0.1 μM metal solution, co-treatment with 1 μM insulin, vs no stimulating sample
[6] = 10 μM metal solution, 30 min, vs C2C12 cells without stimulation
[7] = 10 μM metal solution, co-treatment with 6 pM insulin, vs no stimulating sample
[8] = 100 μM metal solution, 30 min, vs C2C12 cells without stimulation
[9] = 100 μM metal solution, co-treatment with 1 μM insulin, vs no stimulating sample
[10] = 1 mM metal solution and the insulin
[11] = 1 mM metal solution, no insulin
[12] = 40 mg/ml solution including 1 mM metal ion, no insulin
[13] = 1 μM metal solution, co-treatment with 10 μM insulin, vs no stimulating sample

| Compound | fold increase in glucose absorption (C2C12 cells [1]; [3]) | fold increase in glucose absorption (C2C12 cells [1]; [4]) | fold increase in glucose absorption (C2C12 cells [1]; [5]) | glucose absorption in contrast to C2C12 cells without stimulation (in words) (C2C12 cells [1]) | fold increase in glucose absorption (C2C12 cells [1]; [6]) | fold increase in glucose absorption (C2C12 cells [1]; [7]) | fold increase in glucose absorption (C2C12 cells [1]; [8]) | fold increase in glucose absorption (C2C12 cells [1]; [9]) | fold increase in glucose absorption (C2C12 cells [1]; [10]) | fold increase in glucose absorption (C2C12 cells [1]; [11]) | fold increase in glucose absorption (C2C12 cells [1]; [12]) | fold increase in glucose absorption (C2C12 cells [1]; [13]) | also measured |
| --- | --- | --- | --- | --- | --- | --- | --- | --- | --- | --- | --- | --- | --- |
| Co-TF: complex of the transferrin and Co^3+, from apo-transferrin and Co^3+ solution (3:1 mole ratio) | 7.01 fold | 7.1 fold | – | – | – | – | – | – | – | – | – | – | fold increase in glucose absorption (C2C12 cells [1]; 100 μg/ml complex, vs no stimulating sample): 4.97 fold |
| [Cr+3] [Cr^3+, chromium (III) ion] | – | – | 4.84 fold | enhanced | 2.21 fold | 2.36 fold | 2.41 fold | 3.74 fold | 1.3 fold | 1.6 fold | 3.9 fold | – | fold increase in glucose absorption (C2C12 cells [1]; 1 μM metal solution, co-treatment with 1 μM insulin, vs no stimulating sample): 3.71 fold |
| [O]=[V+2] [VO^2+, vanadyl] | – | – | – | enhanced | 2.61 fold | – | 2.38 fold | 3.4 fold | 2.7 fold | 1.9 fold | 4.4 fold | 2.7 fold | fold increase in glucose absorption (C2C12 cells [1]; 0.1 μM metal solution, co-treatment with 0.1 μM insulin, vs no stimulating sample): 2.62 fold; fold increase in glucose absorption (C2C12 cells [1]; 10 μM metal solution, co-treatment with 10 μM insulin, vs no stimulating sample): 6.21 fold |
| VO-TF: complex of the transferrin and VO^2+ | 6.07 fold | 6.1 fold | – | – | – | – | – | – | – | – | – | – | fold increase in glucose absorption (C2C12 cells [1]; 40 μg/ml complex, vs no stimulating sample): 4.43 fold |
| Cr-TF: complex of the transferrin and Cr^3+ | 4.94 fold | 5.0 fold | – | – | – | – | – | – | – | – | – | – | fold increase in glucose absorption (C2C12 cells [1]; 80 μg/ml complex, vs no stimulating sample): 4.03 fold |
| [Co+3] [Co^3+, cobalt (III) ion] | – | – | 7.73 fold | enhanced | – | 3.95 fold | 3.14 fold | 8.5 fold | 4.4 fold | 2.5 fold | 3.0 fold | 4.37 fold | change of cell type / damage of C2C12 cells (C2C12 cells [2]; 100 μM metal solution with insulin co-treatment): the type of C2C12 cells changes and the C2C12 cells are damaged; change of cell type / damage of C2C12 cells (C2C12 cells [2]; stimulation for 30 mins, 100 μM (high concentration) for metal solution): damaged at a certain level |
